For test [1], the target named is IL-2-Inducible T-Cell Kinase (ITK) (Homo sapiens (Human), UniProt Q08881). Put plainly: ITK enzyme assay. The class given is biochemical. The following applies: geometric mean of count n; ITK FL enzyme, BTK peptide substrate. As to the method: IL-2-Inducible T-Cell Kinase (ITK) Activity, IC50 (uM)
ITK activity was determined by measuring the effect of a test compound in an ITK enzyme assay.
1.0 M HEPES Buffer pH 7.5 solution was prepared as follows: 238.3 g HEPES free acid (Sigma) and 800 mL of water were combined, and the mixture was stirred until complete dissolution. The pH was adjusted to 7.5 via titration with 5N NaOH and the volume adjusted to 1000 mL. The solution was filtered and sterilized.
ITK assay buffer was prepared as follows: 50 mL of HPLC-grade water was treated with 2 mL of 1.0 M HEPES Buffer, 500 μL of 2% Gelatin (Sigma), 1.0 mL of aqueous MgCl2 solution (1.0 M), and 1.0 mL of aqueous glutathione solution (0.5 M), and the solution was mixed. The solution was brought to 99 mL in a graduated cylinder by addition of water and sterilized through a 0.2 μm filter. 0.1 mL of Brij-35™ Surfact-AmpS™ Detergent Solution (10% w/v aqueous solution, ThermoFisher) and 1.0 mL of ATP (Teknova, 100 mM) were added and the solution was mixed.
Preparation of 1.33×ITK enzyme solution was as follows: 49.99 mL of ITK assay buffer was treated with 4.1 μL of ITK enzyme (ITK FL (N-Flag and C-His tagged, ˜72 kDa) Lake Pharma, 0.25 mg/ml in a buffer containing 25 mM Tris pH 7.8, 150 mM NaCl, 10% glycerol and 2 mM TCEP) and the mixture was gently agitated. The resulting solution was stored on ice. 30 Minutes prior to use, the enzyme solution was removed from ice and equilibrated to RT by incubation in a RT water bath.
Preparation of 4×ITK substrate solution was as follows: 50 mL of ITK assay buffer was treated with 100 μL of BTK peptide (China Peptide Company, 2 mM stock solution in DMSO). The tube was capped, mixed by gently inverting the tube, and then stored on ice. 30 Minutes prior to use, the substrate solution was removed from ice and equilibrated to RT by incubation in a RT water bath.
At the time of assay, 7.5 μL of the 1.33×ITK enzyme solution was added to plate wells containing 0.1 μL of varying concentrations of test compound in DMSO. The plate was incubated 30 min at RT. The plate wells were each treated with 2.5 uL of the 4×ITK substrate solution and the plate was sealed (TopSeal™, Perkin Elmer). The plate was spun at 1000 rpm for 30 sec and then incubated for 60 min at RT. The seal was removed, and each well was treated with 10 μL of Stop/Detect Buffer (20 mM HEPES pH 7.5, 0.01% gelatin, 1 nM LANCE PT66 (Perkin Elmer), 16.5 μg/ml Surelight APC (Perkin Elmer), 10 mM EDTA, 250 mM NaCl). The plate was again covered and was spun at 1000 rpm for 30 seconds. The plate was allowed to incubate overnight at RT and in a closed carrier to reduce dehydration. The seal was removed, and the fluorescence was read with a plate reader with […]. The concentrations and resulting effect values for the tested compound were plotted and the concentration of compound required for 50% effect (IC50) was determined with the four-parameter logistic dose response equation.

Test [2] has as its system IL-2 in supernatants from activated CD4+ human T-cells. Put plainly: IL-2 inhibition in supernatants from activated CD4+ human T-cells (cisbio HTRF). The class given is cell-based. The following applies: T-cell; geometric mean of count n; activated CD4+ human T-cells, 20 to 24 hrs; read-out: IL-2 IC50. As to the method: IL-2-Inhibition Activity, IC50 (uM)
IL-2 inhibition activity in supernatants from activated CD4+ human T-cells was determined by measuring the effect of a test compound on the activity using the cisbio HTRF™ technology.
Human CD4+ T cells were activated with CD3/CD28 for 3 days and expanded for an additional 4-6 days (7 to 9 days total). On day 0, frozen CD4+ T cells were thawed, treated with CD3/CD28 Dynabeads, and incubated at 37° C./5% CO2. On day 3, the beads were removed, and the cells were diluted to 5×10^5 cells/cm^2, placed in G-Rex10 flask, and incubated at 37° C./5% CO2. On day 7 to day 9 the cells were removed from the G-Rex flasks, counted and diluted back to 1×10^6 cells/ml in standard tissue culture flask.
The expanded CD4+ T-cells were centrifuged at 300×g for 10 minutes and resuspended to 0.5 million cells per ml (30,000 cells/well). 60 μl of CD4+ T cells were added per well to a 384 well plate containing 0.1 μL of varying concentrations of test compound in DMSO. The plates were incubated for 15 min at 37° C./5% CO2. 20 μl of diluted ImmunoCult™ (STEMCELL Technologies, 1:12.5 in T cell assay media) were added to all wells of the plate (1:50 final assay concentration). The plates were incubated for an additional 20 to 24 hrs at 37° C./5% CO2. The plates were centrifuged at 300×g for 10 minutes. 16 μL of supernatant was removed and combined with 4 μl of IL-2 HTRF Abs. (cisbio kit). Plates were incubated for 3 hours at RT and read with an EnVision plate reader at 665 nm and 615 nm wavelengths. The concentrations and resulting effect values for the tested compound were plotted and the concentration of compound required for 50% effect (IC50) was determined with the four-parameter logistic dose response equation.

SMILES strings stand for the structures.

Sequence of IL-2-Inducible T-Cell Kinase (ITK) (Q08881 whole entry): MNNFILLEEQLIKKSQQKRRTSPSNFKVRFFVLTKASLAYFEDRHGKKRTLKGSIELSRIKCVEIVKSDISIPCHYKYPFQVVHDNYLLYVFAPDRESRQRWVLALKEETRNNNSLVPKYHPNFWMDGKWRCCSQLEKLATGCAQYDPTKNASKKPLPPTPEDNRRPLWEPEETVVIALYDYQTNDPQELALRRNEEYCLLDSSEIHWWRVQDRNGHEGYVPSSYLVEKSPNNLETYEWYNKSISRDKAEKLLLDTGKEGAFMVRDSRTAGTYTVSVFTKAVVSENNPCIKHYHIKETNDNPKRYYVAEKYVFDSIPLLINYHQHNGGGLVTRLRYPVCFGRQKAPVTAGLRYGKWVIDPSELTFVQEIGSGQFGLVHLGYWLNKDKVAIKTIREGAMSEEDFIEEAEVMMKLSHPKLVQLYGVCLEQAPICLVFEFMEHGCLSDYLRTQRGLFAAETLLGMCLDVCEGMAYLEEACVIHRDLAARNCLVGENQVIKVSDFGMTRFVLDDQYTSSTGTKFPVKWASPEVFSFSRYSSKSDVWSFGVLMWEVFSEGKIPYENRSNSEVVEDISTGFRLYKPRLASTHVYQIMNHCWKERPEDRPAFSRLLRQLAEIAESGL

For the compound `Cc1cc2[nH]c(-c3n[nH]c4c3C[C@@H]3C[C@]3(C)C4)nc2cc1N(C)C(=O)CN1CCCOC1=O` [Example 1, N-Methyl-N-(6-methyl-2-((4aS,5aR)-5a-methyl-1,4,4a,5,5a,6-hexahydrocyclopropa[f]indazol-3-yl)-1H-benzo[d]imidazol-5-yl)-2-(2-oxo-1,3-oxazinan-3-yl)acetamide], the IC50 in test [1] is 3 nM; in test [2] it was 59 nM.
In the case of `CC(=O)N(C)c1ccc2[nH]c(-c3n[nH]c4c3C[C@H]3C(F)(F)[C@@]3(C)C4)nc2c1` [Example 3, N-(2-((4aR,5aS)-5,5-difluoro-5a-methyl-1,4,4a,5,5a,6-hexahydrocyclopropa[f]indazol-3-yl)-1H-benzo[d]imidazol-5-yl)-N-methylacetamide], the IC50 in test [1] was 821 nM; in test [2], 848 nM.
Take `CCN(C(C)=O)c1cc2nc(-c3n[nH]c4c3C[C@@H]3C[C@]3(C)C4)[nH]c2cc1C` [Example 5, N-ethyl-N-(6-methyl-2-((4aS,5aR)-5a-methyl-1,4,4a,5,5a,6-hexahydrocyclopropa[f]indazol-3-yl)-1H-benzo[d]imidazol-5-yl)acetamide]: the IC50 in test [1] was determined as 16 nM; in test [2], 86 nM.
Turning to `CC(=O)N(C)c1cc2nc(-c3n[nH]c4c3C[C@@H]3C[C@]3(C)C4)[nH]c2c(F)c1C` [Example 8, N-(7-fluoro-6-methyl-2-((4aS,5aR)-5a-methyl-1,4,4a,5,5a,6-hexahydrocyclopropa[f]indazol-3-yl)-1H-benzo[d]imidazol-5-yl)-N-methylacetamide], the IC50 in test [1] was determined as 20 nM; in test [2], 129 nM.
As for `CC(=O)N(C)c1cc2nc(-c3n[nH]c4c3C[C@@H]3C[C@]3(C)C4)[nH]c2cc1Br` [Example 9, N-(6-bromo-2-((4aS,5aR)-5a-methyl-1,4,4a,5,5a,6-hexahydrocyclopropa[f]indazol-3-yl)-1H-benzo[d]imidazol-5-yl)-N-methylacetamide], the IC50 in test [1] is 20 nM; in test [2], 139 nM.
For the compound `C[C@H](C(=O)N(C)c1cc(F)c2nc(-c3n[nH]c4c3C[C@@H]3C[C@]3(C)C4)[nH]c2c1)N1CCCOC1=O` [Example 10, (R)-N-(4-fluoro-2-((4aS,5aR)-5a-methyl-1,4,4a,5,5a,6-hexahydrocyclopropa[f]indazol-3-yl)-1H-benzo[d]imidazol-6-yl)-N-methyl-2-(2-oxo-1,3-oxazinan-3-yl)propenamide], the values for the IC50 in test [1] and in test [2] were 49 nM and 342 nM, respectively.
`C[C@@H](C(=O)N(C)c1cc(F)c2nc(-c3n[nH]c4c3C[C@@H]3C[C@]3(C)C4)[nH]c2c1)N1CCCOC1=O` [Example 11, (S)-N-(4-fluoro-2-((4aS,5aR)-5a-methyl-1,4,4a,5,5a,6-hexahydrocyclopropa[f]indazol-3-yl)-1H-benzo[d]imidazol-6-yl)-N-methyl-2-(2-oxo-1,3-oxazinan-3-yl)propenamide]: the IC50 in test [1] is 31 nM; in test [2] it was 324 nM.
On the same counts, the results for `Cc1cc2nc(-c3n[nH]c4c3C[C@@H]3C[C@]3(C)C4)[nH]c2cc1N(C)C(=O)C1(F)CCOCC1` [Example 12, 4-fluoro-N-methyl-N-(5-methyl-2-((4aS,5aR)-5a-methyl-1,4,4a,5,5a,6-hexahydrocyclopropa[f]indazol-3-yl)-1H-benzo[d]imidazol-6-yl)tetrahydro-2H-pyran-4-carboxamide] are 7 nM and 47 nM.
Turning to `Cc1cc2nc(-c3n[nH]c4c3C[C@@H]3C[C@]3(C)C4)[nH]c2cc1N(C)C(=O)C1C[C@@H]2[C@H](C1)C2(F)F` (stereo partly drawn) [Example 13, (1R,5S)-6,6-difluoro-N-methyl-N-(5-methyl-2-((4aS,5aR)-5a-methyl-1,4,4a,5,5a,6-hexahydrocyclopropa[f]indazol-3-yl)-1H-benzo[d]imidazol-6-yl)bicyclo[3.1.0]hexane-3-carboxamide], the IC50 in test [1] was 7 nM; in test [2], 49 nM.
In the case of `Cc1cc2[nH]c(-c3n[nH]c4c3C[C@@H]3C[C@]3(C)C4)nc2cc1N(C)C(=O)C(C)N1CCCCC1` (some centres unmarked) [Example 14], the IC50 was found to be 47 nM in test [1] and 196 nM in test [2].
Turning to `Cc1cc2[nH]c(-c3n[nH]c4c3C[C@@H]3C[C@]3(C)C4)nc2cc1N(C)C(=O)C(C)N1CCCOCC1` (stereo partly drawn) [Example 15, N-methyl-N-(6-methyl-2-((4aS,5aR)-5a-methyl-1,4,4a,5,5a,6-hexahydrocyclopropa[f]indazol-3-yl)-1H-benzo[d]imidazol-5-yl)-2-(1,4-oxazepan-4-yl)propenamide], the IC50 in test [1] was found to be 42 nM; in test [2], 166 nM.
In the case of `CCc1cc2[nH]c(-c3n[nH]c4c3C[C@@H]3C[C@]3(C)C4)nc2cc1N(C)C(C)=O` [Example 16, N-(6-ethyl-2-((4aS,5aR)-5a-methyl-1,4,4a,5,5a,6-hexahydrocyclopropa[f]indazol-3-yl)-1H-benzo[d]imidazol-5-yl)-N-methylacetamide], the values for the IC50 in test [1] and in test [2] were 23 nM and 118 nM, respectively.
As to `Cc1cc2[nH]c(-c3n[nH]c4c3C[C@@H]3C[C@]3(C)C4)nc2cc1N(C)C(=O)C(C)N1CCCC1=O` (stereo partly drawn) [Example 18, N-Methyl-N-(5-methyl-2-((4aS,5aR)-5a-methyl-1,4,4a,5,5a,6-hexahydrocyclopropa[f]indazol-3-yl)-1H-benzo[d]imidazol-6-yl)-2-(2-oxopyrrolidin-1-yl)propenamide], the half-maximal inhibitory concentration (IC50) in test [1] was 54 nM; in test [2] it was 370 nM.
On the same counts, the results for `Cc1cc2[nH]c(-c3n[nH]c4c3C[C@@H]3C[C@]3(C)C4)nc2cc1N(C)C(=O)C1CC1` [Example 19, N-Methyl-N-(5-methyl-2-((4aS,5aR)-5a-methyl-1,4,4a,5,5a,6-hexahydrocyclopropa[f]indazol-3-yl)-1H-benzo[d]imidazol-6-yl)cyclopropanecarboxamide] are 8 nM and 67 nM.
As to `Cc1cc2[nH]c(-c3n[nH]c4c3C[C@@H]3C[C@]3(C)C4)nc2cc1N(C)C(=O)CN1CCCCC1=O` [Example 20, N-Methyl-N-(5-methyl-2-((4aS,5aR)-5a-methyl-1,4,4a,5,5a,6-hexahydrocyclopropa[f]indazol-3-yl)-1H-benzo[d]imidazol-6-yl)-2-(2-oxopiperidin-1-yl)acetamide], the values for the IC50 in test [1] and in test [2] were 4 nM and 59 nM, respectively.
Turning to `CC(=O)N(C)CC(=O)N(C)c1cc2nc(-c3n[nH]c4c3C[C@@H]3C[C@]3(C)C4)[nH]c2cc1C` [Example 21, N-Methyl-N-(5-methyl-2-((4aS,5aR)-5a-methyl-1,4,4a,5,5a,6-hexahydrocyclopropa[f]indazol-3-yl)-1H-benzo[d]imidazol-6-yl)-2-(N-methylacetamido)acetamide], the IC50 came out at 4 nM in test [1] and 79 nM in test [2].

(Values after US20240132477A1, “Benzimidazole Derivatives and Their Use As Inhibitors of ITK For The Treatment of Skin Disease” (PFIZER INC., priority 2020, published 2024).)
